# Test results taken from patent US20150125889A1, “IN VITRO DETECTION OF MICROORGANISMS WITH AZOREDUCTASE ACTIVITY” (BIOMÉRIEUX, priority 2012, published 2015).
# Experiments:
# Assay in all cases: Reduction of azo substrates over 24 hours at 35° C., microtitration plate (Example 1)
# Assay type in all cases: cell-based
# Enterococcus faecalis = test system: Enterococcus faecalis; parameters: key to RED (substrate reduced or not): RED indicates whether the substrate is reduced (Y) or not (N); RED indicates whether the substrate is reduced (Y) or not (N); key to Decol (substrate decolourized, decrease in absorbance) / Fluo (fluorescence multiplied by 2 relative to substrate-free control) / Co (growth, absorbance at 660 nm): The symbol “+” means good growth/decolourization/significant increase in fluorescence; The symbol “+/−” means difficult growth; The symbol “−” means that there is no growth/decolourization/significant increase in fluorescence; settings: E. faecalis, substrate 35 mg/l
# Procedure: (§1) Reduction of the “azo” function of the substrates listed in Table I by the species listed in Table II, each species being represented by a strain, is tested in a microtitration plate.
# (§2) The reaction medium consists of: • Trypcase soya broth • Substrate 35 mg/l • 0.5 MacFarland inoculum
# (§3) The reduction of the substrate and the growth of the microorganisms are monitored using an Infinite® M200 Tecan microplate reader at 35° C. over 24 hours.
# (§4) The growth is monitored by the absorbance at 660 nm and the reduction of the substrates by absorbance and fluorescence at the specific wavelengths indicated in Table III.
# (§5) The substrate is considered as reduced by the microorganisms when the substrate is decolourized (monitored by the decrease in absorbance) (Decol) and/or when the fluorescence of the substrate is multiplied by 2 relative to the base fluorescence of a substrate-free control (Fluo). The growth is indicated by Co. The symbol “+” means good growth/decolourization/significant increase in fluorescence. The symbol “+/−” means difficult growth. The symbol “−” means that there is no growth/decolourization/significant increase in fluorescence. RED indicates whether the substrate is reduced (Y) or not (N).
# Acinetobacter baumanii = test system: Acinetobacter baumanii; parameters: key to RED (substrate reduced or not): RED indicates whether the substrate is reduced (Y) or not (N); RED indicates whether the substrate is reduced (Y) or not (N); key to Decol (substrate decolourized, decrease in absorbance) / Fluo (fluorescence multiplied by 2 relative to substrate-free control) / Co (growth, absorbance at 660 nm): The symbol “+” means good growth/decolourization/significant increase in fluorescence; The symbol “+/−” means difficult growth; The symbol “−” means that there is no growth/decolourization/significant increase in fluorescence; settings: A. baumannii, substrate 35 mg/l
# Procedure: as §1, §2, §3, §4, §5
# Candida albicans = test system: Candida albicans; parameters: key to RED (substrate reduced or not): RED indicates whether the substrate is reduced (Y) or not (N); RED indicates whether the substrate is reduced (Y) or not (N); key to Co (growth, absorbance at 660 nm) / Decol (substrate decolourized, decrease in absorbance) / Fluo (fluorescence multiplied by 2 relative to substrate-free control): The symbol “+” means good growth/decolourization/significant increase in fluorescence; The symbol “+/−” means difficult growth; The symbol “−” means that there is no growth/decolourization/significant increase in fluorescence; settings: substrate 35 mg/l
# Procedure: as §1, §2, §3, §4, §5
# Staphylococcus aureus = test system: Staphylococcus aureus; parameters: key to RED (substrate reduced or not): RED indicates whether the substrate is reduced (Y) or not (N); RED indicates whether the substrate is reduced (Y) or not (N); key to Co (growth, absorbance at 660 nm) / Decol (substrate decolourized, decrease in absorbance) / Fluo (fluorescence multiplied by 2 relative to substrate-free control): The symbol “+” means good growth/decolourization/significant increase in fluorescence; The symbol “+/−” means difficult growth; The symbol “−” means that there is no growth/decolourization/significant increase in fluorescence; settings: S. aureus, substrate 35 mg/l
# Procedure: as §1, §2, §3, §4, §5
# Escherichia coli = test system: Escherichia coli; parameters: key to RED (substrate reduced or not): RED indicates whether the substrate is reduced (Y) or not (N); RED indicates whether the substrate is reduced (Y) or not (N); key to Co (growth, absorbance at 660 nm) / Decol (substrate decolourized, decrease in absorbance) / Fluo (fluorescence multiplied by 2 relative to substrate-free control): The symbol “+” means good growth/decolourization/significant increase in fluorescence; The symbol “+/−” means difficult growth; The symbol “−” means that there is no growth/decolourization/significant increase in fluorescence; settings: E. coli, substrate 35 mg/l
# Procedure: as §1, §2, §3, §4, §5
# Cronobacter muytjensii = test system: Cronobacter muytjensii; parameters: key to RED (substrate reduced or not): RED indicates whether the substrate is reduced (Y) or not (N); RED indicates whether the substrate is reduced (Y) or not (N); key to Co (growth, absorbance at 660 nm) / Decol (substrate decolourized, decrease in absorbance) / Fluo (fluorescence multiplied by 2 relative to substrate-free control): The symbol “+” means good growth/decolourization/significant increase in fluorescence; The symbol “+/−” means difficult growth; The symbol “−” means that there is no growth/decolourization/significant increase in fluorescence; settings: E. muytjensii, substrate 35 mg/l
# Procedure: as §1, §2, §3, §4, §5
# Pseudomonas aeruginosa = test system: Pseudomonas aeruginosa; parameters: key to RED (substrate reduced or not): RED indicates whether the substrate is reduced (Y) or not (N); RED indicates whether the substrate is reduced (Y) or not (N); key to Co (growth, absorbance at 660 nm) / Decol (substrate decolourized, decrease in absorbance) / Fluo (fluorescence multiplied by 2 relative to substrate-free control): The symbol “+” means good growth/decolourization/significant increase in fluorescence; The symbol “+/−” means difficult growth; The symbol “−” means that there is no growth/decolourization/significant increase in fluorescence; settings: P. aeruginosa, substrate 35 mg/l
# Procedure: as §1, §2, §3, §4, §5
# [1] = test system: Staphylococcus epidermidis; parameters: key to RED (substrate reduced or not): RED indicates whether the substrate is reduced (Y) or not (N); RED indicates whether the substrate is reduced (Y) or not (N); key to Co (growth, absorbance at 660 nm) / Decol (substrate decolourized, decrease in absorbance) / Fluo (fluorescence multiplied by 2 relative to substrate-free control): The symbol “+” means good growth/decolourization/significant increase in fluorescence; The symbol “+/−” means difficult growth; The symbol “−” means that there is no growth/decolourization/significant increase in fluorescence; settings: S. epidermidis, substrate 35 mg/l
# Procedure: as §1, §2, §3, §4, §5
# Geotrichum candidum = test system: Geotrichum candidum; parameters: key to RED (substrate reduced or not): RED indicates whether the substrate is reduced (Y) or not (N); RED indicates whether the substrate is reduced (Y) or not (N); key to Co (growth, absorbance at 660 nm) / Decol (substrate decolourized, decrease in absorbance) / Fluo (fluorescence multiplied by 2 relative to substrate-free control): The symbol “+” means good growth/decolourization/significant increase in fluorescence; The symbol “+/−” means difficult growth; The symbol “−” means that there is no growth/decolourization/significant increase in fluorescence; settings: G. candidum, substrate 35 mg/l
# Procedure: as §1, §2, §3, §4, §5
# Kocuria rosea = test system: Kocuria rosea; parameters: key to RED (substrate reduced or not): RED indicates whether the substrate is reduced (Y) or not (N); RED indicates whether the substrate is reduced (Y) or not (N); key to Co (growth, absorbance at 660 nm) / Decol (substrate decolourized, decrease in absorbance) / Fluo (fluorescence multiplied by 2 relative to substrate-free control): The symbol “+” means good growth/decolourization/significant increase in fluorescence; The symbol “+/−” means difficult growth; The symbol “−” means that there is no growth/decolourization/significant increase in fluorescence; settings: K. rosea, substrate 35 mg/l
# Procedure: as §1, §2, §3, §4, §5
SMILES,"Co (growth, absorbance at 660 nm) (Enterococcus faecalis)","Decol (substrate decolourized, decrease in absorbance) (Enterococcus faecalis)",Fluo (fluorescence multiplied by 2 relative to substrate-free control) (Enterococcus faecalis),RED (substrate reduced or not) (Enterococcus faecalis),"Co (growth, absorbance at 660 nm) (Acinetobacter baumanii)","Decol (substrate decolourized, decrease in absorbance) (Acinetobacter baumanii)",Fluo (fluorescence multiplied by 2 relative to substrate-free control) (Acinetobacter baumanii),RED (substrate reduced or not) (Acinetobacter baumanii),"Co (growth, absorbance at 660 nm) (Candida albicans)","Decol (substrate decolourized, decrease in absorbance) (Candida albicans)",Fluo (fluorescence multiplied by 2 relative to substrate-free control) (Candida albicans),RED (substrate reduced or not) (Candida albicans),"Co (growth, absorbance at 660 nm) (Staphylococcus aureus)","Decol (substrate decolourized, decrease in absorbance) (Staphylococcus aureus)",Fluo (fluorescence multiplied by 2 relative to substrate-free control) (Staphylococcus aureus),RED (substrate reduced or not) (Staphylococcus aureus),"Co (growth, absorbance at 660 nm) (Escherichia coli)","Decol (substrate decolourized, decrease in absorbance) (Escherichia coli)",Fluo (fluorescence multiplied by 2 relative to substrate-free control) (Escherichia coli),RED (substrate reduced or not) (Escherichia coli),further results
"Nc1ccc(/N=N/c2ccc(S(=O)(=O)O)cc2)cc1S(=O)(=O)O [4-aminoazobenzene-3,4′-disulfonic acid, 4-Aminoazobenzene-3,4′-disulfonic acid]",+,+,+,Y,+,−,−,N,+,+,+,Y,+,−,−,N,+,−,−,N,"Co (growth, absorbance at 660 nm) (Cronobacter muytjensii): +; Decol (substrate decolourized, decrease in absorbance) (Cronobacter muytjensii): −; Fluo (fluorescence multiplied by 2 relative to substrate-free control) (Cronobacter muytjensii): −; RED (substrate reduced or not) (Cronobacter muytjensii): N; Co (growth, absorbance at 660 nm) (Pseudomonas aeruginosa): +; Decol (substrate decolourized, decrease in absorbance) (Pseudomonas aeruginosa): −; Fluo (fluorescence multiplied by 2 relative to substrate-free control) (Pseudomonas aeruginosa): −; RED (substrate reduced or not) (Pseudomonas aeruginosa): N; Co (growth, absorbance at 660 nm) [1]: +; Decol (substrate decolourized, decrease in absorbance) [1]: −; Fluo (fluorescence multiplied by 2 relative to substrate-free control) [1]: −; RED (substrate reduced or not) [1]: N; Co (growth, absorbance at 660 nm) (Geotrichum candidum): +; Decol (substrate decolourized, decrease in absorbance) (Geotrichum candidum): −; Fluo (fluorescence multiplied by 2 relative to substrate-free control) (Geotrichum candidum): −; RED (substrate reduced or not) (Geotrichum candidum): N; Co (growth, absorbance at 660 nm) (Kocuria rosea): −; Decol (substrate decolourized, decrease in absorbance) (Kocuria rosea): −; Fluo (fluorescence multiplied by 2 relative to substrate-free control) (Kocuria rosea): −"
"Oc1ccc2ccccc2c1/N=N/c1ccc(/C=C/c2ccnc3ccccc23)cc1 [BF38, 4″-Quinoline-4′-styryl-azo-2-Hydroxynaphthol]",+,+,−,Y,+,−,−,N,+,−,−,N,+,+,−,Y,+,+,−,Y,"Co (growth, absorbance at 660 nm) (Cronobacter muytjensii): +; Decol (substrate decolourized, decrease in absorbance) (Cronobacter muytjensii): +; Fluo (fluorescence multiplied by 2 relative to substrate-free control) (Cronobacter muytjensii): −; RED (substrate reduced or not) (Cronobacter muytjensii): Y; Co (growth, absorbance at 660 nm) (Pseudomonas aeruginosa): +; Decol (substrate decolourized, decrease in absorbance) (Pseudomonas aeruginosa): +; Fluo (fluorescence multiplied by 2 relative to substrate-free control) (Pseudomonas aeruginosa): −; RED (substrate reduced or not) (Pseudomonas aeruginosa): Y; Co (growth, absorbance at 660 nm) [1]: +; Decol (substrate decolourized, decrease in absorbance) [1]: +; Fluo (fluorescence multiplied by 2 relative to substrate-free control) [1]: −; RED (substrate reduced or not) [1]: Y; Co (growth, absorbance at 660 nm) (Geotrichum candidum): +; Decol (substrate decolourized, decrease in absorbance) (Geotrichum candidum): −; Fluo (fluorescence multiplied by 2 relative to substrate-free control) (Geotrichum candidum): −; RED (substrate reduced or not) (Geotrichum candidum): N; Co (growth, absorbance at 660 nm) (Kocuria rosea): −; Decol (substrate decolourized, decrease in absorbance) (Kocuria rosea): −; Fluo (fluorescence multiplied by 2 relative to substrate-free control) (Kocuria rosea): −"
